From ChEMBL document CHEMBL4476879, “MST1 kinase inhibitors and methods of their use” (2013)
Active and inactive are the calls of the source.

Key:
Format in all cases: functional, organism-based
Mus musculus [1] = test: Prophylactic anti-inflammatory activity in mouse model of experimental autoimmune encephalomyelitis disease assessed as reduction in disease clinical scores at 10 mg/kg, po BID for 22 days starting on day (-1) before MOG peptide immunization
Mus musculus [2] = test: Prophylactic anti-inflammatory activity in mouse model of experimental autoimmune encephalomyelitis disease assessed as reduction in disease clinical scores at 30 mg/kg, po BID for 22 days starting on day (-1) before MOG peptide immunization
Mus musculus [3] = test: Prophylactic anti-inflammatory activity in mouse model of experimental autoimmune encephalomyelitis disease assessed as reduction in disease clinical scores at 100 mg/kg, po for 22 days (dosed BID on days-1 to 9 and QD on days 10 to 21) starting on day (-1) before MOG peptide immunization
Mus musculus [4] = test: Therapeutic anti-inflammatory activity in mouse model of experimental autoimmune encephalomyelitis disease assessed as reduction in disease clinical scores at 10 mg/kg, po BID for 14 days starting on day 9 after MOG peptide immunization
Mus musculus [5] = test: Therapeutic anti-inflammatory activity in mouse model of experimental autoimmune encephalomyelitis disease assessed as reduction in disease clinical scores at 30 mg/kg, po BID for 14 days starting on day 9 after MOG peptide immunization
Mus musculus [6] = test: Therapeutic anti-inflammatory activity in mouse model of experimental autoimmune encephalomyelitis disease assessed as reduction in disease clinical scores at 100 mg/kg, po for 14 days ( dosed BID on days 9 to 13 and QD on day 14 to 23 starting on day 9 after MOG peptide immunization
Rattus norvegicus [7] = test: Therapeutic anti-inflammatory activity in rat model of experimental autoimmune encephalomyelitis disease assessed as reduction in disease severity clinical scores at 10 to 50 mg/kg, po BID starting on day 9 after MOG peptide immunization
Mus musculus [8] = test: Therapeutic anti-inflammatory activity in mouse model of collagen-induced arthritis disease assessed as reduction in cumulative arthritis scores at 10 to 100 mg/kg, po BID for 21 days starting on day 20 after immunization
Mus musculus [9] = test: Therapeutic anti-inflammatory activity in mouse model of collagen-induced arthritis disease assessed as effect on ankle thickness at 10 to 100 mg/kg, po BID for 21 days starting on day 20 after immunization
Rattus norvegicus [10] = test: Therapeutic anti-inflammatory activity in rat model of collagen-induced arthritis disease assessed as reduction in cumulative arthritis scores at 10 to 25 mg/kg, po BID for 21 days starting on day 11 after immunization
Rattus norvegicus [11] = test: Therapeutic anti-inflammatory activity in rat model of collagen-induced arthritis disease assessed as reduction in cumulative arthritis scores at 50 mg/kg, po QD for 21 days starting on day 11 after immunization
Rattus norvegicus [12] = test: Therapeutic anti-inflammatory activity in rat model of collagen-induced arthritis disease assessed as effect on ankle thickness by measuring water displacement at 10 to 25 mg/kg, po BID for 21 days starting on day 11 after immunization
Rattus norvegicus [13] = test: Therapeutic anti-inflammatory activity in rat model of collagen-induced arthritis disease assessed as effect on ankle thickness by measuring water displacement at 50 mg/kg, po QD for 21 days starting on day 11 after immunization
Mus musculus [14] = test: Anti-inflammatory activity in mouse model of concanavalin A-induced hepatitis assessed as reduction in TNFalpha level at 10 to 100 mg/kg, po dosed dosed 16 hrs and 1 hr before and 8 hrs after concanavalin A challenge
Mus musculus [15] = test: Anti-inflammatory activity in mouse model of concanavalin A-induced hepatitis assessed as reduction in IL6 level at 10 to 100 mg/kg, po dosed dosed 16 hrs and 1 hr before and 8 hrs after concanavalin A challenge
Mus musculus [16] = test: Anti-inflammatory activity in mouse model of concanavalin A-induced hepatitis assessed as reduction in MCP1 level at 10 to 100 mg/kg, po dosed dosed 16 hrs and 1 hr before and 8 hrs after concanavalin A challenge
Mus musculus [17] = test: Anti-inflammatory activity in mouse model of concanavalin A-induced hepatitis assessed as effect on IFNgamma level at 10 to 100 mg/kg, po dosed dosed 16 hrs and 1 hr before and 8 hrs after concanavalin A challenge
Mus musculus [18] = test: Anti-inflammatory activity in mouse model of concanavalin A-induced hepatitis assessed as reduction in ALT level at 10 to 100 mg/kg, po dosed dosed 16 hrs and 1 hr before and 8 hrs after concanavalin A challenge
Mus musculus [19] = test: Anti-inflammatory activity in mouse model of concanavalin A-induced hepatitis assessed as reduction in AST level at 10 to 100 mg/kg, po dosed dosed 16 hrs and 1 hr before and 8 hrs after concanavalin A challenge
Rattus norvegicus [20] = test: Therapeutic anti-inflammatory activity in rat model of experimental autoimmune encephalomyelitis disease assessed as reduction in disease severity clinical scores at 0.3 to 10 mg/kg, po QD starting on day 10 after MOG peptide immunization
Mus musculus [21] = test: Anti-inflammatory activity in mouse model of concanavalin A-induced hepatitis assessed as reduction in TNFalpha level at 1 to 10 mg/kg, po dosed dosed 16 hrs and 1 hr before and 8 hrs after concanavalin A challenge
Mus musculus [22] = test: Anti-inflammatory activity in mouse model of concanavalin A-induced hepatitis assessed as reduction in IL6 level at 1 to 10 mg/kg, po dosed dosed 16 hrs and 1 hr before and 8 hrs after concanavalin A challenge
Mus musculus [23] = test: Anti-inflammatory activity in mouse model of concanavalin A-induced hepatitis assessed as reduction in MCP1 level at 1 to 10 mg/kg, po dosed dosed 16 hrs and 1 hr before and 8 hrs after concanavalin A challenge
Mus musculus [24] = test: Anti-inflammatory activity in mouse model of concanavalin A-induced hepatitis assessed as effect on IFNgamma level at 1 to 10 mg/kg, po dosed dosed 16 hrs and 1 hr before and 8 hrs after concanavalin A challenge
Mus musculus [25] = test: Anti-inflammatory activity in mouse model of concanavalin A-induced hepatitis assessed as reduction in ALT level at 1 to 10 mg/kg, po dosed dosed 16 hrs and 1 hr before and 8 hrs after concanavalin A challenge
Mus musculus [26] = test: Anti-inflammatory activity in mouse model of concanavalin A-induced hepatitis assessed as reduction in AST level at 1 to 10 mg/kg, po dosed dosed 16 hrs and 1 hr before and 8 hrs after concanavalin A challenge
Mus musculus [27] = test: Therapeutic anti-inflammatory activity in mouse model of experimental autoimmune encephalomyelitis disease assessed as reduction in disease clinical scores at 3 to 10 mg/kg, sc BID for 12 days starting on day 9 after MOG peptide immunization
Mus musculus [28] = test: Therapeutic anti-inflammatory activity in mouse model of experimental autoimmune encephalomyelitis disease assessed as reduction in disease clinical scores at 3 to 30 mg/kg, po BID for 21 days starting on day 9 after MOG peptide immunization
Mus musculus [29] = test: Therapeutic anti-inflammatory activity in mouse model of collagen-induced arthritis disease assessed as reduction in cumulative arthritis scores at 10 to 30 mg/kg, sc BID for 3 weeks days starting on day 20 after collagen immunization
Mus musculus [30] = test: Therapeutic anti-inflammatory activity in mouse model of collagen-induced arthritis disease assessed as effect on ankle thickness at 10 to 30 mg/kg, sc BID for 3 weeks days starting on day 20 after collagen immunization
Mus musculus [31] = test: Therapeutic anti-inflammatory activity in mouse model of collagen-induced arthritis disease assessed as reduction in cumulative arthritis scores at 10 to 50 mg/kg, po BID for 3 weeks days starting on day 20 after collagen immunization
Mus musculus [32] = test: Therapeutic anti-inflammatory activity in mouse model of collagen-induced arthritis disease assessed as effect on ankle thickness at 10 to 50 mg/kg, po BID for 3 weeks days starting on day 20 after collagen immunization

Measured: Activity

CN(C1CC1)S(=O)(=O)c1ccc(-c2cnc(N)c(-c3ccc4c(c3)CCNC4=O)c2)cc1
active: Mus musculus [1] | Mus musculus [2] | Mus musculus [3] | Mus musculus [4] | Mus musculus [5] | Mus musculus [6] | Rattus norvegicus [7] Dose-dependent effect | Mus musculus [8] | Mus musculus [9] | Rattus norvegicus [10] | Rattus norvegicus [11] | Rattus norvegicus [12] | Rattus norvegicus [13] | Mus musculus [14] | Mus musculus [15] | Mus musculus [16] | Mus musculus [17] | Mus musculus [18] | Mus musculus [19]

N#CC1(c2ccc(-c3cnc(N)c(-c4ccc5c(c4)CCNC5=O)n3)cc2)CC1
active: Rattus norvegicus [20] | Mus musculus [21] | Mus musculus [22] | Mus musculus [23] | Mus musculus [24] | Mus musculus [25] | Mus musculus [26]

CN(C1CC1)S(=O)(=O)c1ccc(-c2cnc(N)c(-c3ccc4c(c3)CCNC4=O)n2)cc1
active: Mus musculus [27] Dose-dependent effect | Mus musculus [28] Dose-dependent effect | Mus musculus [29] | Mus musculus [30] | Mus musculus [31] | Mus musculus [32]
